In US11820756B2, “Bradykinin B2 receptor antagonists” (Pharvaris Netherlands B.V., priority 2017, dated 2023):

target: T1, human bradykinin B2 receptor (hB2R) (Homo sapiens, UniProt P30411); test: cell-based human bradykinin B2 receptor calcium mobilization (hB2R-CaM) assay; conditions: HTS041C cells, bradykinin at EC80, calcium mobilization; read-out: IC50-value towards human bradykinin B2 receptor (hB2R)
T1 sequence (P30411 1-391): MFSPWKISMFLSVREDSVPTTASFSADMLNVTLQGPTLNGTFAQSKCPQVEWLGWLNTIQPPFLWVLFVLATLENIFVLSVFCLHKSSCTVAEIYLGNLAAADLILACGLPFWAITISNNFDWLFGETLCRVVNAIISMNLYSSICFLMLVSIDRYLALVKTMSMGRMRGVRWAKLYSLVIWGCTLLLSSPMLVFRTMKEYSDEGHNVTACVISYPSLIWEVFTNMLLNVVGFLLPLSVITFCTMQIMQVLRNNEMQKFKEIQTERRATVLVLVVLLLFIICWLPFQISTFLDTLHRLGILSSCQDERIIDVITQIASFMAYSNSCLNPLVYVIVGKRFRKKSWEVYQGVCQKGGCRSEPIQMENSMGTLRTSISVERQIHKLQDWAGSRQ
Text: The following cell-based human bradykinin B2 receptor calcium mobilization (hB2R-CaM) assay was used to determine the antagonistic activity of compounds selected from the example compounds Nos. 1 to 168 towards human bradykinin B2 receptor (hB2R). The assay is defined herein as a standard in vitro B2 receptor activity assay, which can be used to determine IC50 values of the compounds according to the present invention, e. g. the compounds shown in Examples 1-11.
The antagonistic activity of compounds according to the present invention was investigated with the hB2R-CaM assay using the B2 Bradykinin Receptor Stable Cell Line HTS041C (Eurofins, St. Charles MO) and the FLIPR Calcium 6 Assay Kit (Molecular Devices, Wokingham, UK) according to the instructions of the providers. CaM assay measurements were performed with a Flexstation 3 System (Molecular Devices) which allows the precise addition of compounds (B2R antagonists) and bradykinin (B2R agonist) to the cells and adjacent continuous recording of the time-dependent CaM assay signals.
HTS041C cells were cultured in high glucose DMEM cell culture medium (Lonza) supplemented with 10% heat-inactivated FBS (PAN Biotech), 10 mM HEPES, Penicillin/Streptomycin (200 U/mL, 200 μg/mL), 1× non-essential amino acids (Lonza), and 250 μg/mL G418 (Invivogen) in cell incubator at 37° C. in a 5% CO2 atmosphere.
One day before the CaM assay experiments cells were seeded in 200 μL DMEM cell culture medium with reduced FBS (5%) and without G418 on clear bottom black 96 well plates (ThermoFisher #165305). Cell starvation was carried out by incubation (37° C., 5% CO2) of 70.000 cells/well for 24 h to 28 h. Immediately prior calcium dye-loading the medium was carefully aspirated and cells were washed with Hank's balanced salt solution (HBSS, Gibco) containing Ca^2+, Mg^2+ and 20 mM HEPES, adjusted to pH 7.4 (HBSS+). Calcium Dye Loading of the Cells:
For calcium dye-loading one FLIPR 6 assay aliquot was dissolved in 20 mL HBSS+. 150 μL of the dye loading solution was added to cell plate and incubated for 120 min at 37° C. and 5% CO2. After dye loading the cell plate was immediately transferred to the pre-warmed (37° C.) Flexstation 3 System for CaM assaying.
Freshly prepared compound (B2 receptor antagonists) dilution series (8 pt, n=2) and bradykinin (B2 receptor agonist) solution in non-binding plates (Costar) were transferred to the Flexstation System (source plate) shortly before starting the experiment. Bradykinin was added in EC80 concentration determined in n>3 preliminary experiments with 8 pt concentration response curves (n=8)). CaM assay was executed by Flexstation 3 System starting with recording of calcium-sensitive dye fluorescence in bottom-read Flex modus with ex/em=485 nm/525 nm, cut off(em)=[…]. After 20 s, 50 μL of 4-fold concentrated compound dilutions were added to the cells resulting in a final DMSO (Sigma) concentration of 0.1% in the cell plate. CaM signals were monitored for 80 s after additions for detection of potential agonistic activities. Prior to bradykinin stimulus compound- and vehicle-treated cells were incubated for 25 min at 37° C. within the Flexstation System. Then 50 μL of a 5-fold concentrated bradykinin solution (HBSS+, 0.1% DMSO) was added to trigger CaM signals (Read out: Max-Min values) which were measured for 80 s post bradykinin stimulus.
IC50 determinations were performed by 4 parameter logistic model curve fitting of the 8 pt (n=2) compound concentration response curves using XLFIT (IDBS) software.
Relative IC50 values of the test compounds were determined with the same hB2R-CaM assay as in Example 12.

[2H][C@@](C)(NC(=O)COC(F)F)c1cc(F)cc(Cl)c1COc1cccc2c(-n3ncnc3C)cc(C)nc12 [Compound 168] and CC[C@H](NC(=O)COC(F)F)c1cc(F)cc(Cl)c1COc1cccc2c(-n3ncnc3C)cc(C)nc12 [Compound 166] cannot be ordered by IC50: no more than 50 nM for the first, no more than 50 nM for the second.

[2H]C([2H])([2H])[C@H](NC(=O)COC(F)F)c1cc(F)cc(Cl)c1COc1cccc2c(-c3ncnn3C)cc(C)nc12 [Compound 202] and Cc1cc(-c2ncnn2C)c2cccc(OCc3c(Cl)cc(F)cc3[C@H](CO)NC(=O)COC(F)F)c2n1 [Compound 190] cannot be ordered by IC50: no more than 50 nM for the first, no more than 50 nM for the second.

Cc1cc(-n2nc(C)nc2C)c2cccc(OCc3c(Cl)cc(F)cc3[C@H](C)NC(=O)c3ccon3)c2n1 [Compound 135] and Cc1cc(-n2nc(C)nc2C)c2cccc(OCc3c(Cl)cc(F)cc3[C@H](C)NC(=O)c3coc(C)n3)c2n1 [Compound 137] fall in the same range of IC50: 51 to 250 nM for the first, 51 to 250 nM for the second.

Cc1cc(-c2ncnn2C)c2cccc(OCc3c(Cl)cc(F)cc3[C@H](C)NC(=O)C(C)(F)F)c2n1 [Compound 178] and [2H][C@@](C)(NC(=O)[C@H](C)F)c1cc(F)cc(Cl)c1COc1cccc2c(-c3ncnn3C)cc(C)nc12 [Compound 213] cannot be ordered by IC50: no more than 50 nM for the first, no more than 50 nM for the second.

First: Cc1cc(-n2cc(F)cn2)c2cccc(OCc3c(Cl)cc(F)cc3[C@H](C)NC(=O)[C@H]3COC(=O)N3)c2n1 [Compound 112]
Second: CC(=O)C(=O)N[C@@H](C)c1cc(F)cc(Cl)c1COc1cccc2c(-n3cc(F)cn3)cc(C)nc12 [Compound 55]
The IC50 of the first is lower: 51 to 250 nM for the first, 251 to 1000 nM for the second. The first is the more potent here.

CCc1ncnn1-c1cc(C)nc2c(OCc3c(Cl)cc(F)cc3[C@H](C)NC(=O)C(C)F)cccc12 (some centres unmarked) [Compound 172] and Cc1cc(-n2ncnc2C)c2cccc(OCc3c(Cl)cc(F)cc3[C@H](C)NC(=O)C(C)F)c2n1 (some centres unmarked) [Compound 193] cannot be ordered by IC50: no more than 50 nM for the first, no more than 50 nM for the second.

CC[C@H](O)C(=O)N[C@@H](C)c1cc(F)cc(Cl)c1COc1cccc2c(-n3cc(F)cn3)cc(C)nc12 [Compound 25] and Cc1cc(-n2cc(F)cn2)c2cccc(OCc3c(Cl)cc(F)cc3[C@H](C)NC(=O)[C@@H](O)CC(C)C)c2n1 [Compound 46] fall in the same range of IC50: 51 to 250 nM for the first, 51 to 250 nM for the second.

Compared with Cc1cc(-n2cc(F)cn2)c2cccc(OCc3c(Cl)cc(F)cc3[C@H](CO)NC(=O)COC(F)F)c2n1 [Compound 106], Cc1cc(-n2cc(F)cn2)c2cccc(OCc3c(Cl)cc(F)cc3[C@H](C)NC(=O)CO)c2n1 [Compound 49] is higher in IC50: no more than 50 nM for the first, 51 to 250 nM for the second. The first is the more potent here.

CO[C@H](C)C(=O)N[C@@H](C)c1cc(F)cc(Cl)c1COc1cccc2c(-n3cc(F)cn3)cc(C)nc12 [Compound 17] and CO[C@@H](C)C(=O)N[C@@H](C)c1cc(F)cc(Cl)c1COc1cccc2c(-n3cc(F)cn3)cc(C)nc12 [Compound 16] cannot be ordered by IC50: no more than 50 nM for the first, no more than 50 nM for the second.

First: CC[C@H](NC(=O)c1ccon1)c1cc(F)cc(Cl)c1COc1cccc2c(-n3cc(F)cn3)cc(C)nc12 [Compound 153]
Second: Cc1cc(-n2cc(F)cn2)c2cccc(OCc3c(Cl)cc(F)cc3[C@H](C)NC(=O)C[C@@H](C)O)c2n1 [Compound 26]
The IC50 of the first is higher: 51 to 250 nM for the first, no more than 50 nM for the second.

First: Cc1cc(-n2cc(F)cn2)c2cccc(OCc3c(Cl)cc(F)cc3[C@H](C)NC(=O)[C@@H](O)C(C)C)c2n1 [Compound 22]
Second: Cc1cc(-n2cc(F)cn2)c2cccc(OCc3c(Cl)cc(F)cc3[C@H](C)NC(=O)C[C@H](C)O)c2n1 [Compound 27]
The IC50 of the first is higher: 51 to 250 nM for the first, no more than 50 nM for the second.

Cc1cc(-c2ncc(C#N)n2C)c2cccc(OCc3c(Cl)cc(F)cc3[C@H](C)NC(=O)C(C)F)c2n1 (some centres unmarked) [Compound 207] and Cc1cc(-c2ccnn2C)c2cccc(OCc3c(Cl)cc(F)cc3[C@H](C)NC(=O)C(F)F)c2n1 [Compound 176] cannot be ordered by IC50: no more than 50 nM for the first, no more than 50 nM for the second.

Cc1cc(-c2[nH]ncc2C)c2cccc(OCc3c(Cl)cc(F)cc3[C@H](C)NC(=O)C(C)(C)O)c2n1 [Compound 189] and CCn1ncnc1-c1cc(C)nc2c(OCc3c(Cl)cc(F)cc3[C@H](C)NC(=O)C(C)(C)O)cccc12 [Compound 143] cannot be ordered by IC50: no more than 50 nM for the first, no more than 50 nM for the second.

Cc1cc(-n2cc(F)cn2)c2cccc(OCc3c(Cl)cc(F)cc3[C@H](C)NC(=O)C3(C)COC3)c2n1 [Compound 58] and Cc1cc(-n2cc(F)cn2)c2cccc(OCc3c(Cl)cc(F)cc3[C@H](C)NC(=O)C(C)(C)CO)c2n1 [Compound 60] cannot be ordered by IC50: no more than 50 nM for the first, no more than 50 nM for the second.

CC[C@@H](O)C(=O)N[C@@H](C)c1cc(F)cc(Cl)c1COc1cccc2c(-n3nccn3)cc(C)nc12 [Compound 34] and CC[C@H](O)C(=O)N[C@@H](C)c1cc(F)cc(Cl)c1COc1cccc2c(-n3nccn3)cc(C)nc12 [Compound 33] fall in the same range of IC50: 51 to 250 nM for the first, 51 to 250 nM for the second.

First: Cc1cc(-n2cnc(C)n2)c2cccc(OCc3c(Cl)cc(F)cc3[C@H](C)NC(=O)c3cnco3)c2n1 [Compound 96]
Second: Cc1cc(-n2ncnc2C)c2cccc(OCc3c(Cl)cc(F)cc3[C@H](C)NC(=O)c3cocn3)c2n1 [Compound 159]
The IC50 of the first is higher: 51 to 250 nM for the first, no more than 50 nM for the second. The second is the more potent here.

Cc1cc(-n2ncnc2C)c2cccc(OCc3c(Cl)cc(F)cc3[C@H](C)NC(=O)CC(F)(F)F)c2n1 [Compound 179] and Cc1cc(-n2ncnc2C)c2cccc(OCc3c(Cl)cc(F)cc3[C@H](C)NC(=O)CC(F)F)c2n1 [Compound 173] cannot be ordered by IC50: no more than 50 nM for the first, no more than 50 nM for the second.

First: Cc1cc(-n2cc(F)cn2)c2cccc(OCc3c(Cl)cc(F)cc3[C@H](C)N(C)C(=O)C(C)(C)O)c2n1 [Compound 101]
Second: Cc1cc(-n2cc(F)cn2)c2cccc(OCc3c(Cl)cc(F)cc3[C@H](C)NC(=O)[C@](C)(O)C(F)(F)F)c2n1 [Compound 53]
The IC50 of the first is lower: no more than 50 nM for the first, 251 to 1000 nM for the second. The first is the more potent here.

First: Cc1cc(-c2ncnn2C)c2cccc(OCc3c(Cl)cc(F)cc3[C@H](C)NC(=O)C3(C)CCCO3)c2n1 (some centres unmarked) [Compound 119]
Second: [2H]C([2H])([2H])[C@H](NC(=O)c1cocn1)c1cc(F)cc(Cl)c1COc1cccc2c(-c3ncnn3C)cc(C)nc12 [Compound 200]
The IC50 of the first is higher: 51 to 250 nM for the first, no more than 50 nM for the second. The second is the more potent here.

First: Cc1cc(-n2cc(F)cn2)c2cccc(OCc3c(Cl)cc(F)cc3[C@H](C)NC(=O)C(C)(C)C(F)(F)F)c2n1 [Compound 48]
Second: Cc1cc(-n2cc(F)cn2)c2cccc(OCc3c(Cl)cc(F)cc3[C@H](C)NC(=O)C(CO)CO)c2n1 [Compound 71]
The IC50 of the first is higher: 51 to 250 nM for the first, no more than 50 nM for the second.

[2H]C([2H])([2H])[C@]([2H])(NC(=O)c1cocn1)c1cc(F)cc(Cl)c1COc1cccc2c(-c3ncnn3C)cc(C)nc12 [Compound 201] and CCc1ncnn1-c1cc(C)nc2c(OCc3c(Cl)cc(F)cc3[C@H](C)NC(=O)c3cocn3)cccc12 [Compound 170] cannot be ordered by IC50: no more than 50 nM for the first, no more than 50 nM for the second.

[2H][C@@](C)(NC(=O)[C@@H](C)F)c1cc(F)cc(Cl)c1COc1cccc2c(-n3ncnc3C)cc(C)nc12 [Compound 11C, (R)—N—((S)-1-deutero-1-(3-chloro-5-fluoro-2-((2-methyl-4-(5-methyl-1H-1,2,4-triazol-1-yl)quinolin-8-yloxy)methyl)phenyl)ethyl)-2-fluoropropanamide] and [2H][C@@](C)(NC(=O)[C@H](C)F)c1cc(F)cc(Cl)c1COc1cccc2c(-n3ncnc3C)cc(C)nc12 [Compound 212] cannot be ordered by IC50: no more than 50 nM for the first, no more than 50 nM for the second.
